Test results taken from US20220241409A1, “WATER SOLUBLE ADJUVANT AND COMPOSITION CONTAINING SAME” (Sumitomo Dainippon Pharma Co., Ltd., priority 2019, published 2022).

Experiments:
[1] = test system: HLA-A*02:01 transgenic mouse; test: In vivo adjuvant activity, CTL induction with vaccine b (Montanide ISA 51 VG), IFNγ ELISPOT (Test 8); details: compound (32.5 ng or 325 ng per body) added to vaccine b versus no compound; twice, one week interval
Description: The in vivo adjuvant activity of the compounds prepared in Examples 2 and 3 was evaluated in the following procedure. To a cocktail vaccine comprising Compound of formula 4 prepared in Reference example 9 and Peptide SEQ ID No. 3 prepared in Reference example 3 with Montanide ISA51 VG (hereinafter, referred to as “vaccine b”) was added the compound prepared in Example 2 or 3 to prepare each vaccine. The vaccine was administered to a HLA-A*02:01 transgenic mouse, and the adjuvant activity of each vaccine was evaluated by the method of testing antigen-specific CTL induction.
Specifically, Compound of formula 4 and Peptide SEQ ID No. 3 were dissolved in DMSO, and then diluted with water for injection to concentrations of Compound of formula 4 of 3 mg/mL and Peptide SEQ ID No. 3 of 2.25 mg/mL. The diluted peptide solution was mixed and emulsified with an equal volume of Montanide ISA 51 VG (Seppic) to prepare vaccine b. Cocktail vaccine b was injected to mice intradermally at the tail base area in an amount for administering 300 μg of Compound of formula 4 per body and 225 μg of Peptide SEQ ID No. 3 per body. Or, in the step of preparing vaccine b, the compound prepared in Example 3 was added to the diluted peptide solution to prepare a vaccine, and the prepared vaccine was injected to mice intradermally at the tail base area in an amount for administering 300 μg of Compound of formula 4 per body, 225 μg of Peptide SEQ ID No. 3 per body, and 32.5 ng or 325 ng of the compound prepared in Example 3 per body. Or, in the step of preparing vaccine b, the compound prepared in Example 2 was added to the diluted peptide solution to prepare a vaccine, and the prepared vaccine was injected to mice intradermally at the tail base area in an amount for administering 300 μg of Compound of formula 4 per body, 225 μg of Peptide SEQ ID No. 3 per body, and 32.5 ng or 325 ng of the compound prepared in Example 2 per body. The administrations were done twice, which had one week interval. One week after the final administration, the mice were sacrificed with CO2 gas. Splenocytes were harvested from spleens removed from the mice. Like Test 6, Peptide (SEQ ID No. 1 or SEQ ID No. 5) was added to the splenocyte-containing ELISPOT plate, and the plate was incubated overnight at 37° C. under an atmosphere of 5% CO2 to re-stimulate the peptide in vitro. Then, after removal of the supernatant from the wells, stained spots on the ELISPOT plate were counted.

[2] = test system: HLA-A*02:01 transgenic mouse; test: In vivo adjuvant activity, CTL induction with vaccine a, IFNγ ELISPOT (Test 7); details: for CTL counts responsive to Peptide SEQ ID No. 5: compound added to vaccine a versus no compound, Example 2 325 ng per body, Reference example 12 225 ng per body, twice, one week interval
Description: The in vivo adjuvant activity of the compound prepared in Example 2 and the compound prepared in Reference example 12 was evaluated in the following procedure. To vaccine a was added the compound prepared in Example 2 or the compound prepared in Reference example 12 to prepare each vaccine, and the vaccine was administered to a HLA-A*02:01 transgenic mouse, and the adjuvant activity of each vaccine was evaluated by the method of testing antigen-specific CTL induction.
Specifically, vaccine a prepared like Test 6 was injected to mice intradermally at the tail base area in an amount for administering 300 μg of Compound of formula 4 per body and 225 μg of Peptide SEQ ID NO. 3 per body. Or, in the step of preparing vaccine a, the compound prepared in Example 2 was added to the diluted peptide solution to prepare a vaccine, and the prepared vaccine was injected to mice intradermally at the tail base area in an amount for administering 300 μg of Compound of formula 4 per body, 225 μg of Peptide SEQ ID No. 3 per body, and 325 ng of the compound prepared in Example 2 per body. Or, in the step of preparing vaccine a, the compound prepared in Reference example 12 was added to the diluted peptide solution to prepare a vaccine, and the prepared vaccine was injected to mice intradermally at the tail base area in an amount for administering 300 μg of Compound of formula 4 per body, 225 μg of Peptide SEQ ID No. 3 per body, and 225 ng of the compound prepared in Reference example 12 per body. The administrations were done twice, which had one week interval. One week after the final administration, the mice were sacrificed with CO2 gas. Splenocytes were harvested from spleens removed from the mice. In particular, an ELISPOT plate was treated with an anti-mouse-IFNγ antibody on the day before preparation of the splenocyte samples. On the next day, the plate was blocked by treatment with an RPMI 1640 medium with 10% FBS. To the blocked ELISPOT plate, the prepared splenocyte samples were added at 6.25×10^4 cells/well. […] Stained spots were counted on ImmunoSpot Analyzer.

[3] = test system: human peripheral blood mononuclear cell; test: Activation of immune cells, human PBMC cytokine/chemokine production (Test 3); type: cell-based; details: 200 nmol/L, one day, PBMCs from two donors, compared with only DMSO
Description: Cryopreserved peripheral blood mononuclear cells (PBMCs) of adult (C.T.L) were reconstituted, suspended in a culture medium which comprises AIM V medium (Life Technologies) supplemented with 10% human serum (biowest) and 1% MEM Non-Essential Amino Acids Solution (100×) (Life Technologies), and seeded on a U-bottom 96 well plate at 4×10^5 cells/well. The compound of the present invention was added in the presence of 0.1% (v/v) DMSO to the wells at a final concentration of 200 nmol/L. The plate was incubated at 37° C. under an atmosphere of 5% CO2. One day after the incubation, the culture supernatant was collected. The concentration of cytokine and chemokine (GM-CSF, IFNα2, IFNγ, IL-12p40, IL-1p, IL-6, IP-10, and TNFα) which were included in each culture supernatant was measured with Milliplex Human Cytokine/Chemokine Magnetic Bead Panel kit (Millipore) and Luminex system (Luminex) in accordance with the manufacturer's protocol.
The results of the test wherein PBMCs derived from two different donors were used were shown in FIG. 1-A to FIG. 1-I. The white bar indicates the mean number of the concentration of cytokine and chemokine in the culture supernatant from three wells to which only DMSO was added, and the black bar indicates the mean number of the concentration of cytokine and chemokine in the culture supernatant from three wells to which the present compound was added. […]

## CCCCOc1nc(N)c2[nH]c(=O)n(Cc3ccc(CN(C)CCOCCOCCOCCOCCO)nc3)c2n1 [Example 2, 6-amino-2-butoxy-9-{[6-(16-hydroxy-2-methyl-5,8,11,14-tetraoxa-2-azahexadecan-1-yl)pyridin-3-yl]methyl}-7,9-dihydro-8H-purin-8-one-trifluoroacetate]
[1]
  CTL counts responsive to Peptide of SEQ ID No. 1: more
  CTL counts responsive to Peptide of SEQ ID No. 5: more
[2]; Example 2 325 ng per body versus Reference example 12 225 ng per body, added to vaccine
  increase of the CTL counts (Peptide SEQ ID No. 5) compared with Reference example 12: more
[2]
  CTL counts responsive to Peptide SEQ ID No. 5: more
[3]
  concentration of cytokine and chemokine (GM-CSF, IFNα2, IFNγ, IL-12p40, IL-1β, IL-6, IP-10, TNFα) in culture supernatant: higher

## CCCCOc1nc(N)c2[nH]c(=O)n(Cc3ccc(CN(C)CCOCCOCCOCCOCCO)cc3)c2n1 [Example 3, 6-amino-2-butoxy-9-{[4-(16-hydroxy-2-methyl-5,8,11,14-tetraoxa-2-azahexadecan-1-yl)phenyl]methyl}-7,9-dihydro-8H-purin-8-one]
[1]
  CTL counts responsive to Peptide of SEQ ID No. 1: more
  CTL counts responsive to Peptide of SEQ ID No. 5: more
[3]
  concentration of cytokine and chemokine (GM-CSF, IFNα2, IFNγ, IL-12p40, IL-1β, IL-6, IP-10, TNFα) in culture supernatant: higher

## CCCCOc1nc(N)c2[nH]c(=O)n(Cc3ccc(CNC)nc3)c2n1 [Reference example 12, reference compound]
[2]
  CTL counts responsive to Peptide SEQ ID No. 5: more
